# Assay results as given in PubChem BioAssay (NCI).
#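 GI50 marks 50% less growth. The concentration for full growth arrest is given as TGI.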
# Tests used:
# Assay in all cases: NCI tumour cell line growth inhibition, 384-well format
# CAKI-1 renal = test system: CAKI-1 renal
# HOP-62 NSCLC = test system: HOP-62 NSCLC
# BT-549 breast = test system: BT-549 breast
# MDA-MB-231 breast = test system: MDA-MB-231 breast
# UACC-62 melanoma = test system: UACC-62 melanoma
# EKVX NSCLC = test system: EKVX NSCLC
# HCT-116 colon = test system: HCT-116 colon
# HOP-92 NSCLC = test system: HOP-92 NSCLC
# SW-620 colon = test system: SW-620 colon
# SF-295 CNS = test system: SF-295 CNS
# DU-145 prostate = test system: DU-145 prostate
# SNB-75 CNS = test system: SNB-75 CNS
# HCC-2998 colon = test system: HCC-2998 colon
smiles,measurement,setting,value
C[C@@H](c1ccc2nccn2c1)n1nnc2ncc(-c3cnn(C)c3)nc21,GI50,CAKI-1 renal,> 51.5 µM
same,TGI,CAKI-1 renal,> 100 µM
same,GI50,HOP-62 NSCLC,> 92.4 µM
same,TGI,HOP-62 NSCLC,> 100 µM
same,GI50,BT-549 breast,> 100 µM
same,TGI,BT-549 breast,> 100 µM
same,GI50,MDA-MB-231 breast,> 100 µM
same,TGI,MDA-MB-231 breast,> 100 µM
same,GI50,UACC-62 melanoma,> 100 µM
same,TGI,UACC-62 melanoma,> 100 µM
same,GI50,EKVX NSCLC,> 100 µM
same,TGI,EKVX NSCLC,> 100 µM
same,GI50,HCT-116 colon,> 100 µM
same,TGI,HCT-116 colon,> 100 µM
same,GI50,HOP-92 NSCLC,> 100 µM
same,TGI,HOP-92 NSCLC,> 100 µM
same,GI50,SW-620 colon,> 100 µM
same,TGI,SW-620 colon,> 100 µM
same,GI50,SF-295 CNS,25.2 µM
same,TGI,SF-295 CNS,> 100 µM
same,GI50,DU-145 prostate,> 100 µM
same,TGI,DU-145 prostate,> 100 µM
same,GI50,SNB-75 CNS,> 76.8 µM
same,TGI,SNB-75 CNS,> 100 µM
same,GI50,HCC-2998 colon,> 100 µM
same,TGI,HCC-2998 colon,> 100 µM
